Measurements as given in ChEMBL document CHEMBL1133694, “Hydroxamic acid derivatives as potent peptide deformylase inhibitors and antibacterial agents” (J Med Chem, 2000).
Converted amounts (≈) assume the structure as drawn.

Columns and labels:
Peptide deformylase = biological target: T1, Peptide deformylase (Escherichia coli, UniProt Q9JN24); assay: Inhibitory activity against isolated Escherichia coli peptidyl deformylase (PDF) enzyme containing iron.
T1 sequence (Q9JN24 whole entry): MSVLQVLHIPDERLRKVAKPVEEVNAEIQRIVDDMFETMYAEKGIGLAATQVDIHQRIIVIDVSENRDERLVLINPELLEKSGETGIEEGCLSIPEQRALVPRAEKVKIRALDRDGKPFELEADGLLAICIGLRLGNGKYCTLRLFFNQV

Moraxella catarrhalis = assay: In vitro antibacterial activity against isolated Moraxella catarrhalis RA21; type: functional
Escherichia coli [1] = assay: In vitro antibacterial activity against isolated Escherichia coli DC2; type: functional
[2] = biological target: T2, Endothelin-converting enzyme 1 (Homo sapiens, UniProt P42892); assay: Inhibitory activity against Endothelin-converting enzyme 1
T2 sequence (P42892 whole entry): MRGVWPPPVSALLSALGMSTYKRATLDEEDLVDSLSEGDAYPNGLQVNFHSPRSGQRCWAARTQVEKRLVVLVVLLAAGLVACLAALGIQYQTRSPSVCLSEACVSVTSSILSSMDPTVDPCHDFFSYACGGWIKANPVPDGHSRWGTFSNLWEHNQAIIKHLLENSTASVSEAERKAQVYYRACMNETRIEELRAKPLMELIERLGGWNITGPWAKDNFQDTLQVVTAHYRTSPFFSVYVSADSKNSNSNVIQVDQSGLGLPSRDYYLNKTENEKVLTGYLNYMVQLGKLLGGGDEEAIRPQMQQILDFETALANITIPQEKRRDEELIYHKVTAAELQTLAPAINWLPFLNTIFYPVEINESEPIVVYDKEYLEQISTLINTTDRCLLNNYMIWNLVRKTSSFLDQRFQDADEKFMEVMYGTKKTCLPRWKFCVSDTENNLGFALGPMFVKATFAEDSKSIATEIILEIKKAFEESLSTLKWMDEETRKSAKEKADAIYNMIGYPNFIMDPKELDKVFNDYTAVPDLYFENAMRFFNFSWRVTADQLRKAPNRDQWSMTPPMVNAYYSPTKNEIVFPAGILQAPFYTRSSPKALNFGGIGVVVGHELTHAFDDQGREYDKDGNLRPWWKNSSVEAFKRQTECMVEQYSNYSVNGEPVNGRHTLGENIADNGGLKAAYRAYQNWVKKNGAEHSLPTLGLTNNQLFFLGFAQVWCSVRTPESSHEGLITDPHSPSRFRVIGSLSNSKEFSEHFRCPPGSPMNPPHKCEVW

Neprilysin [3] = biological target: T3, Neprilysin (Rattus norvegicus, UniProt P07861); assay: Inhibitory activity against neutral endopeptidase enzyme (NEP).
T3 sequence (P07861 whole entry): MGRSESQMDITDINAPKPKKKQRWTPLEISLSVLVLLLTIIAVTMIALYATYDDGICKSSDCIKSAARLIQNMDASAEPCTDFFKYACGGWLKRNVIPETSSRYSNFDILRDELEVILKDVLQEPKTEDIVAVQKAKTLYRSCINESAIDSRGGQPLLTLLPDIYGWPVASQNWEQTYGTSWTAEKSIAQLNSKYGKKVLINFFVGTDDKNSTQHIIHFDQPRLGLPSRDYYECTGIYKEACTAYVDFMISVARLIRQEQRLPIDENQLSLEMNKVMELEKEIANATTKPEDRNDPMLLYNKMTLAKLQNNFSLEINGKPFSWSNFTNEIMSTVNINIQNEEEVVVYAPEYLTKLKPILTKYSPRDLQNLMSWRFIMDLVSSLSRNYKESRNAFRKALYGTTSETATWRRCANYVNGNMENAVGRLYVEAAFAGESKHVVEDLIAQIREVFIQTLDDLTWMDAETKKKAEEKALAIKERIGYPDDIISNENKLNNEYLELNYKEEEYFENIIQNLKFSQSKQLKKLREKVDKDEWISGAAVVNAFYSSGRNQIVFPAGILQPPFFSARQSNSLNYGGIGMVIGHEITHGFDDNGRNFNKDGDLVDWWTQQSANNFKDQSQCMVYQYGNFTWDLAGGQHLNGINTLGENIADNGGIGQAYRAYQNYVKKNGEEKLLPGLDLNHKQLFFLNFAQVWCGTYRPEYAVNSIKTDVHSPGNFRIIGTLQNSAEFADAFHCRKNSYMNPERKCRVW

Interstitial collagenase = biological target: T4, Interstitial collagenase (Homo sapiens, UniProt P03956); assay: Inhibition of Matrix metalloprotease-1
T4 sequence (P03956 whole entry): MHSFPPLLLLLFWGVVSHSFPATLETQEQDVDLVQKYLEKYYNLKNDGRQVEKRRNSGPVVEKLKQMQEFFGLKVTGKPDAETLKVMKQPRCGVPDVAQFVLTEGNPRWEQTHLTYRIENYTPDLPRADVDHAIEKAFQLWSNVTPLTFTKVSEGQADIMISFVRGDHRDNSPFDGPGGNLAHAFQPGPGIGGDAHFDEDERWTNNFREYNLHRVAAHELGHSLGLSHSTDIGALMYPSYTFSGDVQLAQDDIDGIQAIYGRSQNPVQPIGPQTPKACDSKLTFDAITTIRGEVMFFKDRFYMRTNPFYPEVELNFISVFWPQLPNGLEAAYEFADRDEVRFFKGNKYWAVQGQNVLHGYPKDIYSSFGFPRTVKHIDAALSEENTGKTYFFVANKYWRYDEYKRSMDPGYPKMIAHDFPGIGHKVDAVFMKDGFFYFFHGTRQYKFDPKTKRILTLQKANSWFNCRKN

Matrilysin = Matrilysin (Homo sapiens, UniProt P09237); assay: Inhibition of matrilysin, Matrix metalloprotease-7
Sequence of Matrilysin (P09237 whole entry): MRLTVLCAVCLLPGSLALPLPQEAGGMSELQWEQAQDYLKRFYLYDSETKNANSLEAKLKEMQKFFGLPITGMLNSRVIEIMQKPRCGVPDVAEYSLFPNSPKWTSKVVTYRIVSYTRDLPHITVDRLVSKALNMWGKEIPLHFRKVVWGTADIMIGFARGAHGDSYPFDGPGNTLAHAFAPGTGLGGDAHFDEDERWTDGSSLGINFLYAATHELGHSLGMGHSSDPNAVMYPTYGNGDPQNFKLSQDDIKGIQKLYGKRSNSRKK

Collagenase 3 = Collagenase 3 (Homo sapiens, UniProt P45452); assay: Inhibition of Matrix metalloprotease-13
[4] = biological target: Angiotensin-converting enzyme (Homo sapiens, UniProt P12821)
Sequence of Angiotensin-converting enzyme (P12821 whole entry): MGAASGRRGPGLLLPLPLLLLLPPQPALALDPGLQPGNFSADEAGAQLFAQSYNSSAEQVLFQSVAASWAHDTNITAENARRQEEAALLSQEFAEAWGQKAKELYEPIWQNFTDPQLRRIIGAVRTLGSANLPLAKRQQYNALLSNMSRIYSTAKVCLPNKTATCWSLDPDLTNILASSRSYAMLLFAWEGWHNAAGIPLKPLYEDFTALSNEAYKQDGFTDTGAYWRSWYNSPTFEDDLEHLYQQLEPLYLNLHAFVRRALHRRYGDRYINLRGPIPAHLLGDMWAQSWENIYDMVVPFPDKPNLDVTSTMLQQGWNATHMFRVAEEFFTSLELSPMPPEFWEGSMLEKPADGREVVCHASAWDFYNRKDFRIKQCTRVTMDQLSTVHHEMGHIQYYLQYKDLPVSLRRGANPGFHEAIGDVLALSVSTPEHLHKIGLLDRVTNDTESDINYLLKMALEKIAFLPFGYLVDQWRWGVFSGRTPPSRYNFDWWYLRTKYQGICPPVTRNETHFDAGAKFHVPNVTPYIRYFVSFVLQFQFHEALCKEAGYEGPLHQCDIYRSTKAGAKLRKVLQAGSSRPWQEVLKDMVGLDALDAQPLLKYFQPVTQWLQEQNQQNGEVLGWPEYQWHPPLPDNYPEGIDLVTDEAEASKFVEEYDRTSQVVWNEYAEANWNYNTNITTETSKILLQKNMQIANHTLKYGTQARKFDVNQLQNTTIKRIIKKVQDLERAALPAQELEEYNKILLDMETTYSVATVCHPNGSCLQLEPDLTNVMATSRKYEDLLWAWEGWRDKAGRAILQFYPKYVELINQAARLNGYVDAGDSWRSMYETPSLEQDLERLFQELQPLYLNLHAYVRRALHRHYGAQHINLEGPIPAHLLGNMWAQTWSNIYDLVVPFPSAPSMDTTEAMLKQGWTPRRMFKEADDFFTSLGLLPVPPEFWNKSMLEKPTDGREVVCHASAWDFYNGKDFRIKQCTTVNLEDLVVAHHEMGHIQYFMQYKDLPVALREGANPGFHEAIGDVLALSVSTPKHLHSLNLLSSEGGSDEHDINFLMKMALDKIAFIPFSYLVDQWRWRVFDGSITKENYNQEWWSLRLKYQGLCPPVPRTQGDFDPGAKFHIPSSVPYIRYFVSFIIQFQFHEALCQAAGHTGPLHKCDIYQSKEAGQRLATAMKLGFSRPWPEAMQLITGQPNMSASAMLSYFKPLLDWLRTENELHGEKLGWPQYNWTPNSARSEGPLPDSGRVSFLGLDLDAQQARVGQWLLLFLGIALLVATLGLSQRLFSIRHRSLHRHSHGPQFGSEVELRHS

[5] = biological target: Macrophage metalloelastase (Homo sapiens, UniProt P39900); assay: Inhibition of human Matrix metalloprotease-12
Sequence of Macrophage metalloelastase (P39900 whole entry): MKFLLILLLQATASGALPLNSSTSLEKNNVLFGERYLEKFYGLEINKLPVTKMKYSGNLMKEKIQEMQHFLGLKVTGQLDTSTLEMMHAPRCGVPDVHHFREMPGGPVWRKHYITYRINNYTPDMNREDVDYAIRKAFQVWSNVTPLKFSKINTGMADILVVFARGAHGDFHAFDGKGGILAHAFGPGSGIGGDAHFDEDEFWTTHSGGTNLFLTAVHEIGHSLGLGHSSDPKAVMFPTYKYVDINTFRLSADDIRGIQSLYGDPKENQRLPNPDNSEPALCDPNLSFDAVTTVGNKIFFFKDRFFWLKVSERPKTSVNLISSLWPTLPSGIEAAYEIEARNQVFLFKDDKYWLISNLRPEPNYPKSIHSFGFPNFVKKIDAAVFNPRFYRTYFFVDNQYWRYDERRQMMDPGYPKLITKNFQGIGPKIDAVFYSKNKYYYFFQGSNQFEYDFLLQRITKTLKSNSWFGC

Neprilysin [6] = biological target: T3, Neprilysin; assay: Inhibitory activity against endopeptidase enzyme (NEP).
Staphylococcus aureus = assay: In vitro antibacterial activity against Staphylococcus aureus ATCC 25923.; type: functional
Bacillus subtilis = assay: In vitro antibacterial activity against Bacillus subtilis ATCC 585969.; type: functional
Escherichia coli [7] = assay: In vitro antibacterial activity against Escherichia coli ATCC 25922.; type: functional
[8] = system: Stenotrophomonas maltophilia; assay: In vitro antibacterial activity against Stenotrophomonas maltophilia 1AC739.; type: functional
Pseudomonas aeruginosa = assay: In vitro antibacterial activity against Pseudomonas aeruginosa ATCC 27853.; type: functional
Haemophilus influenzae = assay: In vitro antibacterial activity against Haemophilus influenzae 11.; type: functional
Enterococcus faecalis = assay: In vitro antibacterial activity against Enterococcus faecalis ATCC 29212.; type: functional
[9] = system: Mycoplasmoides pneumoniae; assay: In vitro antibacterial activity against Mycoplasma pneumoniae ATCC 29342.; type: functional
Chlamydia pneumoniae = assay: In vitro antibacterial activity against Chlamydia pneumoniae AR-39.; type: functional
Enterococcus faecium = assay: In vitro antibacterial activity against Enterococcus faecium vanA E25_1.; type: functional
Streptococcus pneumoniae [10] = assay: In vitro antibacterial activity against Streptococcus pneumoniae 1/1 (penicillin resistant).; type: functional
Streptococcus pneumoniae [11] = assay: In vitro antibacterial activity against Streptococcus pneumoniae ATCC 49619.; type: functional

SMILES	IC50 (Peptide deformylase)	MIC (Moraxella catarrhalis)	MIC (Escherichia coli [1])	also measured
CCCC(CC(=O)NO)S(=O)(=O)c1ccccc1 (stereo not given)	160 nM	4 µg/mL (≈ 14.7 µM)	64 µg/mL (≈ 236 µM)	–
CCCCC(CC(=O)NO)S(=O)(=O)C1CCCCC1 (stereo not given)	–	< 0.25 µg/mL	8 µg/mL (≈ 27.5 µM)	IC50 [2]: 78 µM; IC50 (Neprilysin [3]): 1650 nM; IC50 (Interstitial collagenase): 54 nM; IC50 (Matrilysin): 290 nM; IC50 (Collagenase 3): 100 nM; IC50 [4]: > 100 µM; IC50 [5]: 14 nM
CCCCC(CC(=O)NO)[S+]([O-])c1ccc2ccccc2c1 (stereo not given)	64 nM	< 0.25 µg/mL	2 µg/mL (≈ 6.26 µM)	–
CCCCC(CC(=O)NO)[S+]([O-])c1cccc(OC)c1 (stereo not given)	94 nM	0.25 µg/mL (≈ 0.835 µM)	4 µg/mL (≈ 13.4 µM)	–
CCCCC(CC(=O)NO)[S+]([O-])c1ccc(OC)cc1 (stereo not given)	99 nM	< 0.25 µg/mL	2 µg/mL (≈ 6.68 µM)	–
CCC(CC(=O)NO)S(=O)(=O)c1ccccc1 (stereo not given)	–	> 64 µg/mL	> 64 µg/mL	–
CCCCC(CC(=O)NO)S(=O)(=O)c1ccc2ccccc2c1 (stereo not given)	23 nM	0.5 µg/mL (≈ 1.49 µM)	8 µg/mL (≈ 23.9 µM)	IC50 [2]: 450 µM; IC50 (Neprilysin [6]): 500 nM; IC50 (Interstitial collagenase): 70 nM; IC50 (Matrilysin): 1500 nM; IC50 (Collagenase 3): 9 nM; IC50 [4]: 12.4 µM; IC50 [5]: 13 nM
CCCCC(CC(=O)NO)S(=O)(=O)c1ccc(NC(C)=O)cc1 (stereo not given)	11 nM	1 µg/mL (≈ 2.92 µM)	16 µg/mL (≈ 46.7 µM)	–
O=C(CC(c1ccccc1)S(=O)(=O)c1ccccc1)NO (stereo not given)	160 nM	8 µg/mL (≈ 26.2 µM)	32 µg/mL (≈ 105 µM)	–
O=C(CC(c1ccc2c(c1)OCO2)S(=O)(=O)c1ccccc1)NO (stereo not given)	–	1 µg/mL (≈ 2.86 µM)	16 µg/mL (≈ 45.8 µM)	–
CCCCC(CC(=O)NO)S(=O)(=O)Cc1ccccc1 (stereo not given)	190 nM	16 µg/mL (≈ 53.4 µM)	128 µg/mL (≈ 428 µM)	–
O=C(CC(c1ccco1)S(=O)(=O)c1ccccc1)NO (stereo not given)	–	4 µg/mL (≈ 13.5 µM)	32 µg/mL (≈ 108 µM)	–
CCCCC[C@H](CC(=O)NO)C(=O)N[C@H](C(=O)N1CCC[C@H]1CO)C(C)C [ACTINONIN]	–	< 0.06 µg/mL	1 µg/mL (≈ 2.59 µM)	MIC (Staphylococcus aureus): 32 µg/mL (≈ 83 µM); MIC (Bacillus subtilis): 8 µg/mL (≈ 20.8 µM); MIC (Escherichia coli [7]): 64 µg/mL (≈ 166 µM); MIC [8]: 16 µg/mL (≈ 41.5 µM); MIC (Pseudomonas aeruginosa): > 128 µg/mL; MIC (Haemophilus influenzae): 2 µg/mL (≈ 5.19 µM); MIC (Enterococcus faecalis): > 128 µg/mL; MIC [9]: > 64 µg/mL; MIC (Chlamydia pneumoniae): 4 µg/mL (≈ 10.4 µM); MIC (Enterococcus faecium): > 128 µg/mL; MIC (Streptococcus pneumoniae [10]): 128 µg/mL (≈ 332 µM); MIC (Streptococcus pneumoniae [11]): 32 µg/mL (≈ 83 µM)
